In ChEMBL document CHEMBL3132769, “Fragment growing to retain or alter the selectivity of anchored kinase hinge-binding fragments” (Medchemcomm, 2014):

Columns and labels:
[1] = target: Calcium/calmodulin-dependent protein kinase type II subunit beta (Homo sapiens) (UniProt Q13554); assay: Inhibition of human CAMK2 beta catalytic domain expressed in baculovirus assessed as substrate phosphorylation using fluorescence-labelled peptides as substrate at 0.2 uM after 90 mins by microfluidic peptide phosphorylation assay
Chain of Calcium/calmodulin-dependent protein kinase type II subunit beta (Homo sapiens) (Q13554 whole entry, the tested form may be a part): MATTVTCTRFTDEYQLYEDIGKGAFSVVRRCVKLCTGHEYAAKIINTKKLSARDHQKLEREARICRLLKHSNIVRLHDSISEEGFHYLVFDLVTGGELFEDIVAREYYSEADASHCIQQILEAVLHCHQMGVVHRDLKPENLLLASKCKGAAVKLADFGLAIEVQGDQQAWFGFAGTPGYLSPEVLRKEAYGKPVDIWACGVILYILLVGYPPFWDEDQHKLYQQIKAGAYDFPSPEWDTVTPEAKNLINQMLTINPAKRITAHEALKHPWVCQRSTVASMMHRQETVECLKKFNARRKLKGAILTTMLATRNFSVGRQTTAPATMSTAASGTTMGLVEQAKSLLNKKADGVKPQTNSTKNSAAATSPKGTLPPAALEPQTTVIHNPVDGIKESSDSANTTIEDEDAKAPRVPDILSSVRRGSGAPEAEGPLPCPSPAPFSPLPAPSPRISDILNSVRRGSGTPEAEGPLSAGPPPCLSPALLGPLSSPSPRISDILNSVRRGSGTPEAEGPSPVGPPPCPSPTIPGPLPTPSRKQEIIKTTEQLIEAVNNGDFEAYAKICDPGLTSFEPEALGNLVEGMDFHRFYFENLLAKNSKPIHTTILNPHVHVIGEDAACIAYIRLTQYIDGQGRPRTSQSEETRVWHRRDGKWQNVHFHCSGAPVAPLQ

[2] = target: Vascular endothelial growth factor receptor 2 (Homo sapiens) (UniProt P35968); assay: Inhibition of human KDR cytoplasmic domain expressed in baculovirus assessed as substrate phosphorylation using fluorescence-labelled peptides as substrate at 420 uM after 90 mins by microfluidic peptide phosphorylation assay
Chain of Vascular endothelial growth factor receptor 2 (Homo sapiens) (P35968 whole entry, the tested form may be a part): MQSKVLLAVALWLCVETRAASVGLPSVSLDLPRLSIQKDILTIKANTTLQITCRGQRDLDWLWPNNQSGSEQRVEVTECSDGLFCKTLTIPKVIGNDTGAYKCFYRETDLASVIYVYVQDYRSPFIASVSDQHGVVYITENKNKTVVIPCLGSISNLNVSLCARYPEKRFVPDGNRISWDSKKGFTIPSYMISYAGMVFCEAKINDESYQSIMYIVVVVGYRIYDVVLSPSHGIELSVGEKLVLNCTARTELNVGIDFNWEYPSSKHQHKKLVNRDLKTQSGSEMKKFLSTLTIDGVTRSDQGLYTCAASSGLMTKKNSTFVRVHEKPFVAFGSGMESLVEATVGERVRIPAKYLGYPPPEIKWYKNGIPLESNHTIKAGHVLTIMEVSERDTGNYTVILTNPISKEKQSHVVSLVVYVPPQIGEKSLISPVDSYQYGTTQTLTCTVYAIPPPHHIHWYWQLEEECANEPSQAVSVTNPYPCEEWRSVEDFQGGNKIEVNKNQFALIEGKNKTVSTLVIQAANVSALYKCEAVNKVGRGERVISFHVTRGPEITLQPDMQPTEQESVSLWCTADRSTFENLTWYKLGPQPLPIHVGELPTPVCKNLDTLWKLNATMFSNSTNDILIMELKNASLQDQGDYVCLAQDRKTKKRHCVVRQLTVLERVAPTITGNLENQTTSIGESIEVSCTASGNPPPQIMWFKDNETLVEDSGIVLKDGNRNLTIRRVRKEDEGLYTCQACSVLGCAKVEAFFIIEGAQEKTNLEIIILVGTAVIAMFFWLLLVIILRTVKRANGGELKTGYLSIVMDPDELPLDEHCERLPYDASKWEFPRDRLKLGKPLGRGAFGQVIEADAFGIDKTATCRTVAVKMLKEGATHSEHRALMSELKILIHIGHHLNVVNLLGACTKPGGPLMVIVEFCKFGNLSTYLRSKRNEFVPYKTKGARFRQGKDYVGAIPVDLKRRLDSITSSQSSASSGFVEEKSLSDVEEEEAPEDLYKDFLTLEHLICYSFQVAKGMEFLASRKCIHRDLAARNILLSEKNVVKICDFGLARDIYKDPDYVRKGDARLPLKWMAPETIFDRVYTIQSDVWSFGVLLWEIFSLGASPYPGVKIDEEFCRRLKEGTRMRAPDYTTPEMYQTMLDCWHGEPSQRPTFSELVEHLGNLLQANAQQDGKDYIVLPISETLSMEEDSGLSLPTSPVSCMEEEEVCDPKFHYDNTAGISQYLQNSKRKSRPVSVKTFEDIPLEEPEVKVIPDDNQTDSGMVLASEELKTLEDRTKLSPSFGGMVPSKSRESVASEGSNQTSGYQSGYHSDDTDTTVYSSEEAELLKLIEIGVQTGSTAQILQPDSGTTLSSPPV

[3] = target: T1, Serine/threonine-protein kinase Nek2 (Homo sapiens) (UniProt P51955); assay: Inhibition of human full length NEK2 expressed in baculovirus assessed as substrate phosphorylation using fluorescence-labelled peptides as substrate at 2 uM after 90 mins by microfluidic peptide phosphorylation assay
T1 sequence (whole entry): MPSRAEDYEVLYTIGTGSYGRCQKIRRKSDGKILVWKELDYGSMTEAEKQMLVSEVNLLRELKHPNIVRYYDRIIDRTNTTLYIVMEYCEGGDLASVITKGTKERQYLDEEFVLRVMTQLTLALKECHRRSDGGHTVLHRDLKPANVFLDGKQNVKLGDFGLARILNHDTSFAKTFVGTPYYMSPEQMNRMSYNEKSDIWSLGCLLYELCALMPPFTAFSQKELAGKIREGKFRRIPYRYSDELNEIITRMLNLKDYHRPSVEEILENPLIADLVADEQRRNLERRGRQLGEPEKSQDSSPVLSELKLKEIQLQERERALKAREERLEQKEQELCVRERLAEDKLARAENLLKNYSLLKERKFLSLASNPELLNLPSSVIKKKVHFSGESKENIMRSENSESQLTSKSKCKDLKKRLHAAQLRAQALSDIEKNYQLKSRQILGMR

[4] = target: Ribosomal protein S6 kinase alpha-1 (Homo sapiens) (UniProt Q15418); assay: Inhibition of human full length RSK1 expressed in baculovirus assessed as substrate phosphorylation using fluorescence-labelled peptides as substrate at 2 uM after 90 mins by microfluidic peptide phosphorylation assay
Chain of Ribosomal protein S6 kinase alpha-1 (Homo sapiens) (Q15418 whole entry): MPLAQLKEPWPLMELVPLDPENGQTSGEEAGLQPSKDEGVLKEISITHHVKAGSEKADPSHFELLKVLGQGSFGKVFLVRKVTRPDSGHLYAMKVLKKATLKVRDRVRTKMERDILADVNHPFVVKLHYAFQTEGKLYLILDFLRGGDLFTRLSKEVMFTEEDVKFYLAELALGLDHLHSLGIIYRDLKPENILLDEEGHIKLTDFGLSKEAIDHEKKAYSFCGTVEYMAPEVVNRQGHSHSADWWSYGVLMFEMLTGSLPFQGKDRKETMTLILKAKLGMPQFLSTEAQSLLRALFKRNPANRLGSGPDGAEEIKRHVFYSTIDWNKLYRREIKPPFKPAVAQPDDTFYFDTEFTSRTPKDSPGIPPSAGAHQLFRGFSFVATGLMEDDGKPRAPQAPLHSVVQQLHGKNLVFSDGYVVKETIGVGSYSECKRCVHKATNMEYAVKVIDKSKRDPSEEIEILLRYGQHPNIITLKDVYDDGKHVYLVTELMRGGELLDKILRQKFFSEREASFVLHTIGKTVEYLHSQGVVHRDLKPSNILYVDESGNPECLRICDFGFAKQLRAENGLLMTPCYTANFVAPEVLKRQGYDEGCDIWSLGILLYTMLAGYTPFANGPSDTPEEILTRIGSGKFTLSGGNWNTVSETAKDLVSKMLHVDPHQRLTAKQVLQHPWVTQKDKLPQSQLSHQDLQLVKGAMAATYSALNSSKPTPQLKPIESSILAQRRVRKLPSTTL

[5] = target: T2, Serine/threonine-protein kinase Chk1 (Homo sapiens) (UniProt O14757); assay: Inhibition of human full length CHK1 expressed in baculovirus assessed as substrate phosphorylation using fluorescence-labelled peptides as substrate at 95 uM after 90 mins by microfluidic peptide phosphorylation assay
T2 sequence (whole entry): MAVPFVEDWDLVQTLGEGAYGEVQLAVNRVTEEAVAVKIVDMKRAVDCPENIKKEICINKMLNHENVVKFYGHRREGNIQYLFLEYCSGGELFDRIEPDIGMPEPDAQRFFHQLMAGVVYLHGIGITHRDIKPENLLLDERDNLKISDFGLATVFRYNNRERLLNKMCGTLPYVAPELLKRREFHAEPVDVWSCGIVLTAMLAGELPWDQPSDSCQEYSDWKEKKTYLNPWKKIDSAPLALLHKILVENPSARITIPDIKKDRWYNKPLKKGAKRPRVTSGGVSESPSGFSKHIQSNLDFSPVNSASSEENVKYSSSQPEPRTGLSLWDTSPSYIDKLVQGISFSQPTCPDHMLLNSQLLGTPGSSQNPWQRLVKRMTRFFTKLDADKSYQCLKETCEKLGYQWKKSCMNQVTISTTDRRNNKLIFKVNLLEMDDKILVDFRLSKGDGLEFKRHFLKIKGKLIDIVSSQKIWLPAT

[6] = system: Tyrosine-protein kinase ABL1 (Homo sapiens), P00519 [Q252H]; assay: Inhibition of human truncated ABL Q252H mutant expressed in baculovirus assessed as substrate phosphorylation using fluorescence-labelled peptides as substrate at 0.06 uM after 90 mins by microfluidic peptide phosphorylation assay
[7] = target: Serine/threonine-protein kinase pim-1 (Homo sapiens) (UniProt P11309); assay: Inhibition of human full length PIM1 expressed in baculovirus assessed as substrate phosphorylation using fluorescence-labelled peptides as substrate at 8 uM after 90 mins by microfluidic peptide phosphorylation assay
Chain of Serine/threonine-protein kinase pim-1 (Homo sapiens) (P11309 whole entry, looked up): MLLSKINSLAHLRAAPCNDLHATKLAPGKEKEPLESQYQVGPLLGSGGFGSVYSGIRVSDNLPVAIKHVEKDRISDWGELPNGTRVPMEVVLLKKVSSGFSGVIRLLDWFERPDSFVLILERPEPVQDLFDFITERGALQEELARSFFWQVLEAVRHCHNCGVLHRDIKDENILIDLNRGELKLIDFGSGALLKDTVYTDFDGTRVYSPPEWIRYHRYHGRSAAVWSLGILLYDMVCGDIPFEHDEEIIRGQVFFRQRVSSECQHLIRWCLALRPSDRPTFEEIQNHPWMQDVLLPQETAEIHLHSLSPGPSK

[8] = target: Serine/threonine-protein kinase MARK1 (Homo sapiens) (UniProt Q9P0L2); assay: Inhibition of human full length MARK1 expressed in baculovirus assessed as substrate phosphorylation using fluorescence-labelled peptides as substrate at 70 uM after 90 mins by microfluidic peptide phosphorylation assay
Chain of Serine/threonine-protein kinase MARK1 (Homo sapiens) (Q9P0L2 whole entry, looked up): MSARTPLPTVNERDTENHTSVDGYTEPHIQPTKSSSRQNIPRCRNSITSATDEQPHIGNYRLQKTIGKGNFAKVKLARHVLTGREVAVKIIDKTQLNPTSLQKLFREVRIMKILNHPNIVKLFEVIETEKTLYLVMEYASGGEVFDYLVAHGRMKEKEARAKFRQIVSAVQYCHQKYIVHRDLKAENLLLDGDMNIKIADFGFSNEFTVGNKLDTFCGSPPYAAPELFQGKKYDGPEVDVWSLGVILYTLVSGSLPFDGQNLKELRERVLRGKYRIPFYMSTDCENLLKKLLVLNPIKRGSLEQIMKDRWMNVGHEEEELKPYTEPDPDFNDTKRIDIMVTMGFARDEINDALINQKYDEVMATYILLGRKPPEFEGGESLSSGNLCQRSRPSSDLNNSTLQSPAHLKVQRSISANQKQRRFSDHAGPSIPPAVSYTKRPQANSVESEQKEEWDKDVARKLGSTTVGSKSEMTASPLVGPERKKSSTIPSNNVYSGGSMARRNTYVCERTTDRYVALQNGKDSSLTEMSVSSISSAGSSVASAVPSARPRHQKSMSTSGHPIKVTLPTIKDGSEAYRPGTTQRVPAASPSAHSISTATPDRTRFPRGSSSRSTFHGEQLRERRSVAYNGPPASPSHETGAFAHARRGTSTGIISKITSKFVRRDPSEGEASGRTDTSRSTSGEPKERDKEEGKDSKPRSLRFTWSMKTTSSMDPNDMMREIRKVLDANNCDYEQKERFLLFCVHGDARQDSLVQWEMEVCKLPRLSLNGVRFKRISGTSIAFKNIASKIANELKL

[9] = target: T3, Testis-specific serine/threonine-protein kinase 1 (Homo sapiens) (UniProt Q9BXA7); assay: Inhibition of human full length TSSK1 expressed in baculovirus assessed as substrate phosphorylation using fluorescence-labelled peptides as substrate at 1000 uM after 90 mins by microfluidic peptide phosphorylation assay
T3 sequence (whole entry): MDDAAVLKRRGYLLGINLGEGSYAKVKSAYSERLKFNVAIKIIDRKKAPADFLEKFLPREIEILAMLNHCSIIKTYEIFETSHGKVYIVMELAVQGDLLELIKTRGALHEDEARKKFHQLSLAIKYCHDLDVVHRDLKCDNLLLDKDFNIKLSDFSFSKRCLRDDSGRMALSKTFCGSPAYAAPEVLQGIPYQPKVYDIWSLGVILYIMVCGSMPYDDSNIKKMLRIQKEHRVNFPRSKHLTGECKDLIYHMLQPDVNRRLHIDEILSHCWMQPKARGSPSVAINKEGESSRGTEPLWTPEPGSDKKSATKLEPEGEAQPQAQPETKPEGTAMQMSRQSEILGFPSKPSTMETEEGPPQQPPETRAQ

[10] = target: Insulin-like growth factor 1 receptor (Homo sapiens) (UniProt P08069); assay: Inhibition of human IGF1R catalytic domain expressed in baculovirus assessed as substrate phosphorylation using fluorescence-labelled peptides as substrate at 1000 uM after 90 mins by microfluidic peptide phosphorylation assay
[11] = target: Protein kinase C delta type (Homo sapiens) (UniProt Q05655); assay: Inhibition of human truncated PKC delta expressed in baculovirus assessed as substrate phosphorylation using fluorescence-labelled peptides as substrate at 1000 uM after 90 mins by microfluidic peptide phosphorylation assay
Chain of Protein kinase C delta type (Homo sapiens) (Q05655 whole entry, looked up, the tested form may be a part): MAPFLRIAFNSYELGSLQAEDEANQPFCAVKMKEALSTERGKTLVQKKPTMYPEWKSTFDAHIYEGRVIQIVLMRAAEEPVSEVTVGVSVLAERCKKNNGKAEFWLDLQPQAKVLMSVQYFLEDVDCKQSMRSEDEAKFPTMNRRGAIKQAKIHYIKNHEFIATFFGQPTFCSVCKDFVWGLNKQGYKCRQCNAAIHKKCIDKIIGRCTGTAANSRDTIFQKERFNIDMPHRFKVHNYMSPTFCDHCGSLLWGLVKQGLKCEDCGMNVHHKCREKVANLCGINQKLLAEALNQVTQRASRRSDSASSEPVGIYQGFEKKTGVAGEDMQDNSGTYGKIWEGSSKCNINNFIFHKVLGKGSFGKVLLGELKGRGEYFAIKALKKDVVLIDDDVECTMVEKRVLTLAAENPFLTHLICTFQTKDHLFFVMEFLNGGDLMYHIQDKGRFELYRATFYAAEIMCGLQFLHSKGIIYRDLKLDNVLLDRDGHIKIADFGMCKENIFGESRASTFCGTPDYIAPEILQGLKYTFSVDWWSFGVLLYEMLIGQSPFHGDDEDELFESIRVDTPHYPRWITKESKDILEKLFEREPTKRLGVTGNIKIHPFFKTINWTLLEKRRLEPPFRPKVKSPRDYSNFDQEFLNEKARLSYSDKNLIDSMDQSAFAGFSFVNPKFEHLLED

Clc1ccc(C2(c3ccc(-c4ncnc5[nH]cnc45)cc3)CCNCC2)cc1
inhibition [1]: 11.5%

c1nc(N2CCOCC2)c2nc[nH]c2n1
inhibition [2]: 95.5%

NC1CCN(c2ncnc3[nH]ccc23)CC1
inhibition [3]: 0% | inhibition [4]: 7.5%

NCCc1ccc(-c2ncnc3[nH]cnc23)cc1
inhibition [5]: 75.5%

NC1(Cc2ccc(Cl)cc2)CCN(c2ncnc3[nH]ccc23)CC1
inhibition [6]: 0%

NCC1CCN(c2ncnc3[nH]ccc23)CC1
inhibition [7]: 9%

CNCc1ccc(-c2ncnc3[nH]cnc23)cc1
inhibition [8]: 52%

c1cnc2[nH]ccc2c1
inhibition [9]: 52.5% | inhibition [10]: 51.5% | inhibition [11]: 45.5%
